The results in this text go back to US8349826B2, “Oxazolidinone derivatives” (Actelion Pharmaceuticals Ltd., priority 2008, dated 2013).

As a reminder, the MIC is the least concentration at which growth counts as inhibited. A lower MIC goes with greater potency.

In brackets after ≈: the same amount, converted by molar mass.

The test deals with Moraxella catarrhalis A894. Nature of the test: MIC by broth microdilution (cation-adjusted Mueller-Hinton Broth, CLSI M7-A7). Type of test: cell-based. How it is done: Minimal inhibitory concentrations (MICS; mg/l) were determined in cation-adjusted Mueller-Hinton Broth by a microdilution procedure following the description given in “Procedures for Dilution Antimicrobial Susceptibility Tests for Bacteria that Grow Aerobically”, Approved standard, 7th ed., Clinical and Laboratory Standards Institute (CLSI) Document M7-A7, Wayne, Pa., USA, 2006. All Example compounds were tested against several Gram positive and Gram negative bacteria such as S. aureus, E. faecalis, S. pneumoniae, M. catarrhalis, A. baumanii, E. coli or P. aeruginosa.
In general terms: Dilution methods test growth across graded concentrations, often in twofold steps.
The compound `COc1ccc2ccc(=O)n(CCCNC[C@@H]3CN(c4ccc5c(c4)OCCO5)C(=O)O3)c2c1` [Example 3, 1-(3-{[(R)-3-(2,3-dihydro-benzo[1,4]dioxin-6-yl)-2-oxo-oxazolidin-5-ylmethyl]-amino}-propyl)-7-methoxy-1H-quinolin-2-one] showed an MIC of at most 0.031 µg/mL.

The compound `COc1ccc2ccc(=O)n(C3CN(CCC4CN(c5ccc6c(c5)NC(=O)CS6)C(=O)O4)C3)c2c1` (racemic) [Example 5, (RS)-6-(5-{2-[3-(7-methoxy-2-oxo-2H-quinolin-1-yl)-azetidin-1-yl]-ethyl}-2-oxo-oxazolidin-3-yl)-4H-benzo[1,4]thiazin-3-one] returned an MIC of 0.25 µg/mL (≈ 0.494 µM).

For `COc1ccc2ncc(=O)n(C[C@H](O)CNC[C@@H]3CN(c4ccc5c(c4)OCCO5)C(=O)O3)c2n1` [Example 26, 4-((R)-3-{[(R)-3-(2,3-dihydro-benzo[1,4]dioxin-6-yl)-2-oxo-oxazolidin-5-ylmethyl]-amino}-2-hydroxy-propyl)-6-methoxy-4H-pyrido[2,3-b]pyrazin-3-one], inhibition of growth (MIC) required 0.25 µg/mL (≈ 0.517 µM).

Compound `O=C1O[C@H](CNCCCn2c(=O)ccc3ccc(Br)cc32)CN1c1ccc2c(c1)OCCO2` [Example 4, 7-bromo-1-(3-{[(R)-3-(2,3-dihydro-benzo[1,4]dioxin-6-yl)-2-oxo-oxazolidin-5-ylmethyl]-amino}-propyl)-1H-quinolin-2-one] registered an MIC of at most 0.031 µg/mL.

`COc1ccc2ncc(=O)n(CCC(=O)NC[C@@H]3CN(c4ccc5c(c4)OCCO5)C(=O)O3)c2c1` [Example 10, N-[(R)-3-(2,3-dihydro-benzo[1,4]dioxin-6-yl)-2-oxo-oxazolidin-5-ylmethyl]-3-(7-methoxy-2-oxo-2H-quinoxalin-1-yl)-propionamide] came in with an MIC of 0.125 µg/mL (≈ 0.26 µM).

`COc1ccc2ncc(=O)n(CCNCC[C@@H]3CN(c4ccc5c(c4)NC(=O)CS5)C(=O)O3)c2n1` [Example 20, 6-methoxy-4-(2-{2-[(R)-2-oxo-3-(3-oxo-3,4-dihydro-2H-benzo[1,4]thiazin-6-yl)-oxazolidin-5-yl]-ethylamino}-ethyl)-4H-pyrido[2,3-b]pyrazin-3-one] had an MIC of at most 0.031 µg/mL.

`COc1ccc2ncc(=O)n(CCCNC[C@@H]3CN(c4ccc(C)c(F)c4)C(=O)O3)c2n1` [Example 29, 4-(3-{[(R)-3-(3-fluoro-4-methyl-phenyl)-2-oxo-oxazolidin-5-ylmethyl]-amino}-propyl)-6-methoxy-4H-pyrido[2,3-b]pyrazin-3-one] came in with an MIC of 0.063 µg/mL (≈ 0.143 µM).

`COc1ccc2ncc(=O)n(C3CN(C[C@@H]4CN(c5ccc6c(c5)NC(=O)CS6)C(=O)O4)C3)c2n1` [Example 30, 6-methoxy-4-{1-[(R)-2-oxo-3-(3-oxo-3,4-dihydro-2H-benzo[1,4]thiazin-6-yl)-oxazolidin-5-ylmethyl]-azetidin-3-yl}-4H-pyrido[2,3-b]pyrazin-3-one] yielded an MIC of at most 0.016 µg/mL.

Regarding `COc1ccc2ccc(=O)n(C[C@H](O)CNC[C@@H]3CN(c4ccc5c(c4)NC(=O)CS5)C(=O)O3)c2c1.Cl` [Example 14, 6-((R)-5-{[(R)-2-hydroxy-3-(7-methoxy-2-oxo-2H-quinolin-1-yl)-propylamino]-methyl}-2-oxo-oxazolidin-3-yl)-4H-benzo[1,4]thiazin-3-one hydrochloride], the MIC was at most 0.031 µg/mL.

In turn, `O=C(CCn1c(=O)ccc2ccc(Br)cc21)NC[C@@H]1CN(c2ccc3c(c2)OCCO3)C(=O)O1` [Example 8, 3-(7-bromo-2-oxo-2H-quinolin-1-yl)-N-[(R)-3-(2,3-dihydro-benzo[1,4]dioxin-6-yl)-2-oxo-oxazolidin-5-ylmethyl]-propionamide] came in with an MIC of 0.25 µg/mL (≈ 0.473 µM).

For `O=C1CSc2ccc(N3C[C@@H](CNCCCn4c(=O)ccc5ccc(Br)cc54)OC3=O)cc2N1` [Example 2], the “MIC Moraxella catarrhalis A894” value is “<=0.031 mg/l”.

As to `O=C(CCn1c(=O)ccc2ccc(Br)cc21)NC[C@@H]1CN(c2ccc3c(c2)NC(=O)CS3)C(=O)O1` [Example 9, 3-(7-bromo-2-oxo-2H-quinolin-1-yl)-N-[(R)-2-oxo-3-(3-oxo-3,4-dihydro-2H-benzo[1,4]thiazin-6-yl)-oxazolidin-5-ylmethyl]-propionamide], the MIC is at most 0.031 µg/mL.

In turn, `COc1ccc2ccc(=O)n(CCC(=O)NC[C@@H]3CN(c4ccc5c(c4)OCCO5)C(=O)O3)c2c1` [Example 7, N-[(R)-3-(2,3-dihydro-benzo[1,4]dioxin-6-yl)-2-oxo-oxazolidin-5-ylmethyl]-3-(7-methoxy-2-oxo-2H-quinolin-1-yl)-propionamide] came in with a minimal inhibitory concentration (MIC) of 0.5 µg/mL (≈ 1.04 µM).

As for `COc1ccc2nc(C)c(=O)n(CCCNC[C@@H]3CN(c4ccc5c(c4)NC(=O)CS5)C(=O)O3)c2n1` [Example 35, 6-methoxy-2-methyl-4-(3-{[(R)-2-oxo-3-(3-oxo-3,4-dihydro-2H-benzo[1,4]thiazin-6-yl)-oxazolidin-5-ylmethyl]-amino}-propyl)-4H-pyrido[2,3-b]pyrazin-3-one], the MIC was at most 0.016 µg/mL.

`COc1ccc2ncc(=O)n(CCNCCC3CN(c4cc5c(cn4)OCCO5)C(=O)O3)c2n1` (racemic) [Example 31, rac-4-(2-{2-[3-(2,3-dihydro-[1,4]dioxino[2,3-c]pyridin-7-yl)-2-oxo-oxazolidin-5-yl]-ethylamino}-ethyl)-6-methoxy-4H-pyrido[2,3-b]pyrazin-3-one] yielded a minimum inhibitory concentration (MIC) of 1 µg/mL (≈ 2.13 µM).

Regarding `COc1ccc2ccc(=O)n(C[C@@H](O)CNC[C@@H]3CN(c4cc5c(cc4F)SCC(=O)N5)C(=O)O3)c2c1` [Example 16, 7-fluoro-6-((R)-5-{[(S)-2-hydroxy-3-(7-methoxy-2-oxo-2H-quinolin-1-yl)-propylamino]-methyl}-2-oxo-oxazolidin-3-yl)-4H-benzo[1,4]thiazin-3-one], the MIC was at most 0.031 µg/mL.

Turning to `COc1ccc2ccc(=O)n(CCC(=O)NC[C@@H]3CN(c4ccc5c(c4)NC(=O)CS5)C(=O)O3)c2c1` [Example 11, 3-(7-methoxy-2-oxo-2H-quinolin-1-yl)-N-[(R)-2-oxo-3-(3-oxo-3,4-dihydro-2H-benzo[1,4]thiazin-6-yl)-oxazolidin-5-ylmethyl]-propionamide], the MIC was at most 0.031 µg/mL.

Consider `CCOc1ccc(N2C[C@@H](CCN3CC(n4c(=O)cnc5ccc(OC)nc54)C3)OC2=O)cc1` [Example 34, 4-(1-{2-[(R)-3-(4-ethoxy-phenyl)-2-oxo-oxazolidin-5-yl]-ethyl}-azetidin-3-yl)-6-methoxy-4H-pyrido[2,3-b]pyrazin-3-one], for which the MIC stood at 8 µg/mL (≈ 17.2 µM).

Regarding `COc1ccc2ncc(=O)n(C[C@H](O)CNC[C@@H]3CN(c4ccc5c(c4)NC(=O)CO5)C(=O)O3)c2n1` [Example 27], the “MIC Moraxella catarrhalis A894” value was “<=0.031 mg/l”.

For “rac-4-(2-{2-[3-(2,3-dihydro-[1,4]dioxino[2,3-b]pyridin-6-yl)-2-oxo-oxazolidin-5-yl]-ethylamino}-ethyl)-6-methoxy-4H-pyrido[2,3-b]pyrazin-3-one [Example 32]”, the “MIC Moraxella catarrhalis A894” value was determined as 1 µg/mL.

`COc1ccc2ccc(=O)n(C[C@H](O)CNC[C@@H]3CN(c4ccc5c(c4)NC(=O)CO5)C(=O)O3)c2c1.Cl` [Example 13, 6-((R)-5-{[(R)-2-hydroxy-3-(7-methoxy-2-oxo-2H-quinolin-1-yl)-propylamino]-methyl}-2-oxo-oxazolidin-3-yl)-4H-benzo[1,4]oxazin-3-one hydrochloride]: the MIC was at most 0.031 µg/mL.

As for `COc1ccc2ncc(=O)n(CC(N)C(=O)NC[C@@H]3CN(c4ccc5c(c4)OCCO5)C(=O)O3)c2c1` (mixture of isomers) [Example 12, (RS)-2-amino-N-[(R)-3-(2,3-dihydro-benzo[1,4]dioxin-6-yl)-2-oxo-oxazolidin-5-ylmethyl]-3-(7-methoxy-2-oxo-2H-quinoxalin-1-yl)-propionamide], 1 µg/mL was the least that counted as inhibitory (MIC).

As for `COc1ccc2ncc(=O)n(CCCNC[C@@H]3CN(c4ccc5c(c4)NC(=O)CS5)C(=O)O3)c2n1` [Example 17, 6-methoxy-4-(3-{[(R)-2-oxo-3-(3-oxo-3,4-dihydro-2H-benzo[1,4]thiazin-6-yl)-oxazolidin-5-ylmethyl]-amino}-propyl)-4H-pyrido[2,3-b]pyrazin-3-one], the MIC was at most 0.031 µg/mL.

With `COc1ccc2ncc(=O)n(CCNCC[C@@H]3CN(c4ccc5c(c4)NC(=O)CO5)C(=O)O3)c2n1` [Example 21, 6-methoxy-4-(2-{2-[(R)-2-oxo-3-(3-oxo-3,4-dihydro-2H-benzo[1,4]oxazin-6-yl)-oxazolidin-5-yl]-ethylamino}-ethyl)-4H-pyrido[2,3-b]pyrazin-3-one], the MIC is at most 0.031 µg/mL.

For the compound `COc1ccc2ncc(=O)n(C3CN(CC[C@@H]4CN(c5ccc6c(c5)NC(=O)CS6)C(=O)O4)C3)c2n1` [Example 22, 6-methoxy-4-(1-{2-[(R)-2-oxo-3-(3-oxo-3,4-dihydro-2H-benzo[1,4]thiazin-6-yl)-oxazolidin-5-yl]-ethyl}-azetidin-3-yl)-4H-pyrido[2,3-b]pyrazin-3-one], the MIC is at most 0.031 µg/mL.

Compound `COc1ccc2ccc(=O)n(C[C@@H](O)CNC[C@@H]3CN(c4ccc5c(c4)NC(=O)CS5)C(=O)O3)c2c1` [Example 15, 6-((R)-5-{[(S)-2-hydroxy-3-(7-methoxy-2-oxo-2H-quinolin-1-yl)-propylamino]-methyl}-2-oxo-oxazolidin-3-yl)-4H-benzo[1,4]thiazin-3-one] showed an MIC of at most 0.031 µg/mL.

As to `COc1ccc2ncc(=O)n(C3CN(CC[C@H]4CN(c5ccc6c(c5)NC(=O)CS6)C(=O)O4)C3)c2n1` [Example 24, 6-methoxy-4-(1-{2-[(S)-2-oxo-3-(3-oxo-3,4-dihydro-2H-benzo[1,4]thiazin-6-yl)-oxazolidin-5-yl]-ethyl}-azetidin-3-yl)-4H-pyrido[2,3-b]pyrazin-3-one], the MIC was at most 0.031 µg/mL.

In the case of `COc1ccc2ncc(=O)n(C[C@H](O)CNC[C@@H]3CN(c4ccc5c(c4)NC(=O)CS5)C(=O)O3)c2n1` [Example 25, 4-((R)-2-hydroxy-3-{[(R)-2-oxo-3-(3-oxo-3,4-dihydro-2H-benzo[1,4]thiazin-6-yl)-oxazolidin-5-ylmethyl]-amino}-propyl)-6-methoxy-4H-pyrido[2,3-b]pyrazin-3-one], the MIC was at most 0.031 µg/mL.
